Test results taken from paper PMC10779871, “Anti-Trypanosomal Bufadienolides from the Oocytes of the Toad Rhinella alata (Anura, Bufonidae)” (Molecules, 2023).
Read-outs that look alike come from different tables or passages of the source.

How the values were obtained:
T. cruzi trypomastigotes = assay: Anti-trypanosomal bioassay, T. cruzi Tulahuen clone C4 expressing β-galactosidase; format: cell-based, Trypanosoma cruzi; conditions: for EC50: Trypanosoma cruzi, 120 h, read-out: T. cruzi EC50; for Inhibition of the growth of T. cruzi trypomastigotes (in words): four concentrations, screening concentration of 10 µg/mL
Experimental: Anti-trypanosomal bioassays were performed using the recombinant strain Tulahuen, clone C4, of T. cruzi in the form of trypomastigotes (ATCC, Manassas, VA, USA). This strain expresses the enzyme β-galactosidase. The parasites were incubated at 37 °C under an atmosphere of 5% CO2 in RPMI-1640 culture medium supplemented with L-glutamine,4-(2-hydroxyethyl)-piperazine-1-ethanesulfonic acid (HEPES) buffer, NaHCO3, 10% FBS and 0.05% gentamicin (50 mg/mL). Epithelial kidney monkey Vero cells (ATCC, Manassas, VA, USA) were incubated for 24 h and then infected with the parasites 24 h prior to the addition of the compounds. After additional 24 h of infection, the compounds (1–7) were dissolved in DMSO and tested at 10, 2, 0.4 and 0.08 µg/mL for five days. The drug benznidazole was used as a positive control. Chlorophenol-red-β-D-galactopyranoside (Roche Applied Science) was added to each well and then allowed to react with the β-galactosidase of the rest of the living parasites for 4.5 h to quantify the biological activity. Absorbance was measured at 570 nm using a plate reader (Sinergy HT, BioTek Instruments Inc., Winooski, VT, USA).
(§1) All bioassays represent independent analysis and were carried out in duplicate. The data analysis complement Wizard of Excel 2000 (Microsoft, Seattle, WA, USA) was used for the statistical analysis of the 50% inhibiting (IC50) and cytotoxic (CC50) concentration values by adjusting the dose-response curve to a sigmoidal model.

[1] = Cytotoxicity assay (MTT) on Vero cells; format: cell-based; conditions: monkey, five days, read-out: VERO CELL CC50
Experimental: Epithelial kidney monkey Vero cells were incubated at 37 °C in 96-well plates under an atmosphere of 5% CO2, using RPMI-1640 medium (Sigma-Aldrich, St. Louis, MO, USA) supplemented with 0.05% gentamicin (50 mg/mL) and 10% FBS (fetal bovine serum; Gibco, Invitrogen, Carlsbad, CA, USA). Cells were allowed to adhere for one day before incubation for five days with the compounds. Doxorubicin and DMSO were used as positive and negative controls, respectively. When the incubation period ended, 3-(4, 5-di-methyl-thiazol-2-yl)-2, 5-di-phenyl-tetra-zolium bromide (MTT) was added to the wells, and after 4 h, absorbance was measured at 570 nm using a color plate reader. Cytotoxicity was assessed colorimetrically by calculating the capacity of the remaining Vero cells to reduce the yellow MTT into the dark purple formazan product, as reported.
as §1

[2] = cited from earlier work
T. cruzi [3] = conditions: previous study; cited from earlier work
mouse macrophages = conditions: cited from earlier work
erythrocytes = conditions: cited from earlier work
[4] = system: Batrachochytrium dendrobatidis; conditions: cited from earlier work
T. cruzi [5] = system: T. cruzi; design: method as in PMID 32061723; conditions: read-out: IC50 anti-trypanosomal activity; cited from earlier work
Vero cells = system: Vero cells; design: method as in PMID 32061723; conditions: in comparison with bufadienolide 7; cited from earlier work
(Na+)ATPase = conditions: cited from earlier work
[6] = trypomastigote form, Tulahuen clone C4, five days, tested at 10, 2, 0.4 and 0.08 µg/mL
[7] = monkey (Vero host cells), Trypanosoma cruzi (parasite), read-out: Selectivity (CC50/EC50)

SMILES | EC50 (T. cruzi trypomastigotes; [6]) [µM] | Inhibition of the growth of T. cruzi trypomastigotes (in words) (T. cruzi trypomastigotes) | selectivity ratio (T. cruzi trypomastigotes; [7]) | CC50 [1] [µM] | also measured
CC(=O)O[C@H]1[C@H]2O[C@]23[C@@H]2CC[C@]4(O)C[C@@H](O)CC[C@]4(C)[C@H]2CC[C@]3(C)[C@H]1c1ccc(=O)oc1 [Compound 5, cinobufotalin] | 27.8 ± 3.77 | reduce the growth | 0.07 | 1.88 ± 0.2 | 
CC12CCC3C(CCC4(O)CC(O)CCC34C=O)C1(O)CC(O)C2c1ccc(=O)oc1 (stereo not drawn) [Compound 1, 16β-hydroxyl-hellebrigenin] | 22.8 ± 4.11 | reduce the growth | > 5 | > 135 | 
O=C(Cn1ccnc1[N+](=O)[O-])NCc1ccccc1 [Benznidazole, reference compound] | 2.73 ± 0.1 |  | 18.8 | 51.4 ± 6 | 
Clc1ccc(C2CC3CCC2N3)cn1 (stereo not drawn) [epibatidine] |  |  |  |  | Analgesic potency relative to morphine [2]: 200 times more potent than morphine
COc1cccc2c1C(=O)c1c(O)c3c(c(O)c1C2=O)C[C@@](O)(C(=O)CO)C[C@@H]3O[C@H]1C[C@H](N)[C@H](O)[C@H](C)O1 [Doxorubicin, reference compound] |  |  |  | 0.23 | 
C[C@]12CC[C@H]3[C@@H](CC[C@]4(O)C[C@@H](O)CC[C@]34C=O)[C@@]1(O)CC[C@@H]2c1ccc(=O)oc1 [hellebrigenin] |  |  |  |  | Trypanocidal activity (T. cruzi [3]): 91.7 µg/mL; Cytotoxicity on mouse macrophages (in words) (mouse macrophages): no toxic effects; Cytotoxicity on erythrocytes (in words) (erythrocytes): no toxic effects
C[C@]12CC[C@H](O)C[C@H]1CC[C@@H]1[C@@H]2CC[C@]2(C)[C@@H](c3ccc(=O)oc3)[C@@H](O)C[C@]12O [Compound 2, desacetyl-bufotalin] |  |  |  | > 28 | T. cruzi EC50 (T. cruzi trypomastigotes; [6]): Inactive; melting point: 71 °C
C[C@]12CC[C@H](O)C[C@H]1CC[C@@H]1[C@@H]2[C@H](O)C(=O)[C@]2(C)[C@@H](c3ccc(=O)oc3)CC[C@]12O [Arenobufagin] |  |  |  |  | Inhibition of Batrachochytrium dendrobatidis in vitro (in words) [4]: inhibit
C[C@]12CC[C@H](O)C[C@H]1CC[C@@H]1[C@@H]2CC[C@]2(C)[C@@H](c3ccc(=O)oc3)CC[C@]12O [Compound 7, bufalin] |  | reduce the growth |  |  | EC50 (T. cruzi trypomastigotes; TULAHUEN): 3.93 ± 0.57 µM; Selectivity (CC50/EC50) (T. cruzi trypomastigotes; cytotoxicity on Vero cells/anti-trypanosomal activity ratio): 2.69; selectivity ratio at 5 days (T. cruzi trypomastigotes; monkey (Vero host cells), Trypanosoma cruzi (parasite), cytotoxicity on Vero cells/anti-trypanosomal activity ratio, read-out: Selectivity (CC50/EC50)): 2.7; CC50 at 5 days [1]: 10.6 ± 1.54 µM
C[C@]12CC[C@H](O)C[C@@]1(O)CC[C@@H]1[C@@H]2CC[C@]2(C)[C@@H](c3ccc(=O)oc3)CC[C@]12O [telocinobufagin] |  |  |  |  | Trypanocidal activity (T. cruzi [3]): inactive; Inhibition of Batrachochytrium dendrobatidis in vitro (in words) [4]: inhibit; Cytotoxicity on mouse macrophages (in words) (mouse macrophages): no toxic effects; Cytotoxicity on erythrocytes (in words) (erythrocytes): no toxic effects
C[C@]12CC[C@H]3[C@@H](CC[C@@H]4C[C@@H](O)CC[C@@]43CO)[C@@]1(O)CC[C@@H]2c1ccc(=O)oc1 [19-hydroxy-bufalin] |  |  |  |  | IC50 (T. cruzi [5]): 19.4 µM; Cytotoxicity against Vero cells (in words) (Vero cells): low cytotoxicity
C[C@@H]1O[C@@H](O[C@H]2C[C@@H](O)[C@]3(CO)[C@H]4[C@H](O)C[C@]5(C)[C@@H](C6=CC(=O)OC6)CC[C@]5(O)[C@@H]4CC[C@]3(O)C2)[C@H](O)[C@H](O)[C@H]1O [ouabain] |  |  |  |  | Inhibition of enzymatic activity of (Na+)ATPase (in words) ((Na+)ATPase): not inhibited
C[C@]12CC[C@H](O)C[C@H]1CC[C@@H]1[C@@H]2[C@H](O)C[C@]2(C)[C@@H](c3ccc(=O)oc3)CC[C@]12O [γ-bufotalin] |  |  |  |  | Inhibition of Batrachochytrium dendrobatidis in vitro (in words) [4]: inhibit
CC(=O)O[C@H]1C[C@]2(O)[C@@H]3CC[C@@H]4C[C@@H](O)CC[C@]4(C)[C@H]3CC[C@]2(C)[C@H]1c1ccc(=O)oc1 [Compound 4, bufotalin] | 19.6 ± 2 | reduce the growth | > 2 | > 46 | 
CCC(=O)OC1C(c2ccc(=O)oc2)C2(C)CCC3C(CCC4(O)CC(O)CCC34C)C23OC13 (stereo not drawn) [Compound 6, dyscinobufotalin] | 12.3 ± 1.87 | reduce the growth | < 0.01 | 0.02 ± 0.002 | 
CCC(=O)OC1C(c2ccc(=O)oc2)C2(C)CCC3C(CCC4(O)CC(O)CCC34C=O)C23OC13 (stereo not drawn) [Compound 3, 19-formyl-dyscinobufotalin] | 0.19 ± 0.07 | reduce the growth | 1.16 | 0.22 ± 0.09 | 
